Experimental data: the PolyMetriX glass transition set
± gives the standard deviation of the reports.

SMILES | glass transition temperature
*CC(*)(C)C(=O)Oc1ccccc1 (repeat unit) | 110.00 °C
*CC(OC=O)C(COC(=O)O*)OC=O (repeat unit) | 54.30 °C
*Oc1ccc(S(=O)(=O)c2ccc(Oc3ccc(C45CC6CC(CC(c7ccc(*)cc7)(C6)C4)C5)cc3)cc2)cc1 (repeat unit) | 242.00 °C
*OC(CC)CC(*)=O (repeat unit) | -15.40 °C
*CCNC(=O)c1ccc([Si](C)(C)c2ccc(C(=O)NCCN(*)c3ccc(/C=C/c4ccc([N+](=O)[O-])cc4)cc3)cc2)cc1 (repeat unit) | 150.00 °C
*CCCCSS* (repeat unit) | -55.00 °C
*/C(Cl)=C(/*)CCCCCCCC (repeat unit) | 90.00 °C
*NC(CCC(=O)OCCCCC)C(*)=O (repeat unit) | -20.00 °C
*Oc1ccc(Oc2ccc(C(=O)c3cccc(C(=O)c4ccc(*)cc4)c3)cc2)cc1S(=O)(=O)O (repeat unit) | 195.00 °C
*CC(*)OCCCC (repeat unit) [Poly(butyl vinyl ether)] | -52.08 ± 1.5 °C
*CCc1ccc(*)c(Cl)c1 (repeat unit) | 75.00 °C
*CC(*)(C)C(=O)OCC[N+](C)(C)CCCCCCC (repeat unit) | -44.00 °C
*Oc1ccc(C(=O)OCCCCCOC(=O)c2ccc(*)cc2)cc1 (repeat unit) | 26.00 °C
*Oc1ccc(NC(=O)c2ccc3cc(C(=O)Nc4ccc(Oc5ccc(C6(c7ccc(*)cc7)CC7CCC6C7)cc5)cc4)ccc3c2)cc1 (repeat unit) | 276.00 °C
*c1ccc(-c2ccc(-c3cc(-c4ccc(Oc5ccc(-c6cc(*)nc7ccccc67)cc5)cc4)c4ccccc4n3)cc2)cc1 (repeat unit) | 326.00 °C
*CCC/C=C(/*)c1ccccc1 (repeat unit) | 0.00 °C
*OC1C(C)(C)C(OC(=O)c2ccc(C(*)=O)cc2)C1(C)C (repeat unit) | 184.00 °C
*CC(*)c1ccc(C)cc1 (repeat unit) [Poly(p-methyl styrene) ] | 101 ± 1.6 °C
*c1ccc(C)c(N2C(=O)c3ccc(S(=O)(=O)c4ccc5c(c4)C(=O)N(*)C5=O)cc3C2=O)c1 (repeat unit) | 348.00 °C
*C1C(=O)N(c2ccccc2C)C(=O)C1* (repeat unit) | 335.00 °C
*CC(COC(=O)O*)OCCCCCCCCCCCOc1ccc(/C=C/c2ccc([N+](=O)[O-])cc2)cc1 (repeat unit) | 21.00 °C
*CCC(=O)NCc1cc(C)c(CNC(=O)CCO*)cc1C (repeat unit) | 80.00 °C
*O[Si](*)(C)CCCCCCOc1ccc(C(=O)Oc2ccc(OCCCCCC)cc2)cc1 (repeat unit) | 12.00 °C
*C(=O)c1ccc2c(c1)C(=O)N(c1ccc(Cc3ccc(C(=O)c4ccc(N5C(=O)c6ccc(*)cc6C5=O)cc4)cc3)cc1)C2=O (repeat unit) | 307.00 °C
*CC(*)OCCOCCOCCOC (repeat unit) | -76.00 °C
*CCc1cccc(*)c1 (repeat unit) | 9.00 °C
*Oc1ccc(CC(NC(=O)CCc2ccc(OC(=O)COCCOCC(*)=O)cc2)C(=O)OCCCCCC)cc1 (repeat unit) | 28.00 °C

More lines, now with the values ahead:

glass transition temperature | SMILES
194.00 °C | *c1ccc(Oc2cccc(Oc3ccc(N4C(=O)c5ccc(Oc6ccc(C(=O)c7ccc(Oc8ccc9c(c8)C(=O)N(*)C9=O)cc7)cc6)cc5C4=O)cc3)c2)cc1 (repeat unit)
70.00 °C | *CC(=O)OC(=O)COc1ccc(O*)cc1 (repeat unit)
52.00 °C | */C=C/C1CC(*)C2C(=O)N(CCCCCCCCC)C(=O)C12 (repeat unit)
315.00 °C | *c1ccc(Oc2c(C)cc(C(c3cc(C)c(Oc4ccc(-n5c(=O)c6cc7c(=O)n(*)c(=O)c7cc6c5=O)cc4)c(C)c3)c3cccc4ccccc34)cc2C)cc1 (repeat unit)
279.00 °C | *c1ccc(Oc2ccc(N3C(=O)c4ccc(-c5ccc6c(c5)C(=O)N(*)C6=O)cc4C3=O)cc2)cc1 (repeat unit)
310.00 °C | *c1ccc2c(c1)C(=O)N(c1ccc(C(C)(C)c3ccc(N4C(=O)c5ccc(C(*)(C(F)(F)F)C(F)(F)F)cc5C4=O)cc3)cc1)C2=O (repeat unit)
144.00 °C | *CCN(CCOC(=O)Nc1ccc(C)c(NC(=O)O*)c1)c1ccc(/N=N/c2ccc([N+](=O)[O-])cc2)cc1 (repeat unit)
121.00 °C | */C=C/c1cc(OCCc2ccccc2)c(*)cc1OC (repeat unit)
178.00 °C | *c1ccc2c(c1)C(=O)N(c1ccc(Oc3ccc(N4C(=O)c5ccc(C(F)(F)C(F)(F)C(F)(F)C(F)(F)C(F)(F)C(F)(F)C(*)(F)F)cc5C4=O)cc3)cc1)C2=O (repeat unit)
226.00 °C | *c1ccc(Oc2ccc(C(c3ccc(Oc4ccc(-c5nnc(*)n5-c5ccc(S(C)(=O)=O)cc5)cc4)cc3)(C(F)(F)F)C(F)(F)F)cc2)cc1 (repeat unit)
259.00 °C | *C(=O)Nc1ccc(-c2ccc(NC(=O)c3ccc4c(c3)C(=O)N(c3c(C)cc(C)c(N5C(=O)c6ccc(*)cc6C5=O)c3C)C4=O)cc2C)c(C)c1 (repeat unit)
230.00 °C | *c1cc(C(C)C)c(Oc2ccc(S(=O)(=O)c3ccc(Oc4cc(C)c(C5(*)OC(=O)c6ccccc65)cc4C(C)C)cc3)cc2)cc1C (repeat unit)
265.00 °C | *c1ccc(Oc2ccc(S(=O)(=O)c3ccc(Oc4ccc(-c5nc(-c6ccccn6)nnc5*)cc4)cc3)cc2)cc1 (repeat unit)
57.00 °C | *c1nc(-c2ccccc2)nc(N(C)CCCCCCN(*)C)n1 (repeat unit)
226.00 °C | *Cc1cc2cc(C(=O)Nc3ccc(Oc4ccc(NC(=O)c5cc6cc(*)c(OC(=O)COc7ccc8ccc(=O)oc8c7)cc6oc5=O)cc4)cc3)c(=O)oc2cc1OC(=O)COc1ccc2ccc(=O)oc2c1 (repeat unit)
-70.00 °C | *CCC(C)(C)CC(C)COC(=O)CCCCC(=O)O* (repeat unit)
396.50 °C | *Oc1cccc(Oc2ccc3c(=O)n4c5cc(-c6ccc7c(c6)nc6c8ccc(*)c9cccc(c(=O)n76)c98)ccc5nc4c4cccc2c34)c1 (repeat unit)
116.00 °C | *c1cc(Br)c(-c2c(Br)cc(N3C(=O)c4ccc(-c5ccc6c(c5)C(=O)N(*)C6=O)cc4C3=O)cc2C(=O)OCCCCCCCCCC)c(C(=O)OCCCCCCCCCC)c1 (repeat unit)
371.00 °C | *C(=O)Nc1cc(NC(=O)c2ccc3c(c2)C(=O)N(c2cc(-c4nc5ccccc5o4)cc(N4C(=O)c5ccc(*)cc5C4=O)c2)C3=O)cc(-c2nc3ccccc3[nH]2)c1 (repeat unit)
163.00 °C | *Oc1ccc(NC(=O)c2ccc(Oc3ccc(C(C)(C)c4ccc(C(C)(C)c5ccc(Oc6ccc(C(=O)Nc7ccc(Oc8ccc(C(C)(C)c9ccc(*)cc9)cc8)cc7)cc6)cc5)cc4)cc3)cc2)cc1 (repeat unit)

glass transition temperature | SMILES
56.00 °C | *CCOC(=O)NCCCCCCNC(=O)O* (repeat unit)
64.00 °C | *c1ccc(OCCCCCCCCCCCOC(=O)c2ccc(C(=O)OCCCCCCCCCCCOc3ccc(-c4nnc(*)s4)cc3)cc2)cc1 (repeat unit)
-59.00 °C | *CC(*)C(=O)OCCCCCCSCC#N (repeat unit)
196.50 °C | *Nc1ccc(NC(=O)c2ccc(NC(=O)CCCCCCCCCCC(=O)Nc3ccc(C(*)=O)cc3)cc2)cc1C(=O)OCCCCCCCCCCCCCCCCCC (repeat unit)
245.00 °C | *CC(=O)Nc1ccc(Oc2ccc(NC(=O)COc3ccc4ccccc4c3Sc3c(O*)ccc4ccccc34)cc2)cc1 (repeat unit)
115.50 °C | *Nc1cccc(NC(=O)CCCCCCC(*)=O)c1 (repeat unit)
220.00 °C | */C=C/C1CC(*)C2C(=O)N(c3ccccc3)C(=O)C12 (repeat unit)
279.00 °C | *Oc1ccc(NC(=O)c2cc(C(=O)Nc3ccc(*)cc3)cc(S(=O)(=O)c3ccccc3)c2)cc1 (repeat unit)
84.00 °C | *CCOC(=O)NCC1(C)CC(NC(=O)O*)CC(C)(C)C1 (repeat unit)
49.00 °C | *O[Si](*)(C)CCCOc1ccc(C(=O)Oc2ccc(-c3ccc(OC(=O)c4cc(OCCCCC)c(OCCCCC)c(OCCCCC)c4)cc3)cc2)cc1 (repeat unit)
317.2 ± 3.2 °C | *C(=O)c1ccc2c(c1)C(=O)N(c1ccc(C)c(N3C(=O)c4ccc(*)cc4C3=O)c1)C2=O (repeat unit)
250.00 °C | *CCCCCCc1ccc(-c2c(-c3ccccc3)cc(-c3ccc(-c4cc(-c5ccccc5)c(-c5ccc(*)cc5)c(-c5ccccc5)c4-c4ccccc4)cc3)c(-c3ccccc3)c2-c2ccccc2)cc1 (repeat unit)
126.00 °C | *OCCOC(=O)c1cc(/N=N/c2ccc(OCC)cc2)ccc1-c1ccc(/N=N/c2ccc(OCC)cc2)cc1C(=O)OCCOc1nc(-c2ccc(OCCCC)cc2)nc(*)c1-c1ccc(OC)cc1 (repeat unit)
61.00 °C | *CCOC(=O)NCCCCCCNC(=O)OCCOc1ccc(C2(c3ccc(O*)cc3)c3ccccc3-c3ccccc32)cc1 (repeat unit)
294.50 °C | *Nc1ccc(Cc2ccc(NC(=O)c3ccc(C(*)=O)cc3)cc2)cc1 (repeat unit)
46.00 °C | *CCCCCCCNC(=O)CCCCCCCCCCCCCCCCCCC(=O)N* (repeat unit)
200.00 °C | */C(=C(/*)c1ccc[c]([Ge]([CH3])([CH3])[CH3])c1)c1ccccc1 (repeat unit)
202.10 °C | *NNC(=O)c1ccccc1C(=O)Nc1cccc(/C=C2\CC/C(=C\c3cccc(NC(=O)c4ccccc4C(*)=O)c3)C2=O)c1 (repeat unit)
225.20 °C | *C(=O)c1ccc2c(c1)C(=O)N(c1ccc(Oc3ccc(C(=O)c4cccc(C(=O)c5ccc(Oc6ccc(N7C(=O)c8ccc(*)cc8C7=O)cc6C(F)(F)F)cc5)n4)cc3)c(C(F)(F)F)c1)C2=O (repeat unit)
